5 compounds from ChEMBL document CHEMBL1201862, “PubChem BioAssay data set” (2004) can be followed below.

As usually defined, the EC50 is the concentration that produces a half-maximal response. Broadly, the AC50 is the concentration at which the activity in the assay is half-maximal. A word on the IC50: it is the midpoint of a concentration-inhibition curve. The term Ki denotes the equilibrium dissociation constant of an inhibitor or competing ligand from its target. In general, CC50 refers to the concentration giving 50% cytotoxicity.

The target in test [1] is T1, Type-1 angiotensin II receptor (Homo sapiens, UniProt P30556).
T1 sequence (P30556 whole entry): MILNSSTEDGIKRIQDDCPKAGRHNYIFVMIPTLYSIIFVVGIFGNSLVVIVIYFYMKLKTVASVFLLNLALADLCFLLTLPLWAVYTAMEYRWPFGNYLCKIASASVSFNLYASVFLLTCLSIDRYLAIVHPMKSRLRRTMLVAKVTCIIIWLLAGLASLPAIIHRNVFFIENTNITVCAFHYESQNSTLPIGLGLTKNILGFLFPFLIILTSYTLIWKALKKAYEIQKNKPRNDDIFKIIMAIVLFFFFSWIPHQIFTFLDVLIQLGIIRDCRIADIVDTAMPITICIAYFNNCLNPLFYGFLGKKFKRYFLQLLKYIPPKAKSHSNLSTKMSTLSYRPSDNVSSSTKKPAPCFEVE
As to the kind of experiment: AT1 receptor agonists, dose response, selectivity assay for APJ receptor agonist project, cell-based, uHTS hits (AID 488865).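 Note: beta-arrestin recruitment to AT1 measured by enzyme fragment complementation luminescence.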 Type of test: functional.

Test [2] concerns the target T2, Heat shock factor protein 1 (Mus musculus, UniProt P38532).
T2 sequence (P38532 whole entry): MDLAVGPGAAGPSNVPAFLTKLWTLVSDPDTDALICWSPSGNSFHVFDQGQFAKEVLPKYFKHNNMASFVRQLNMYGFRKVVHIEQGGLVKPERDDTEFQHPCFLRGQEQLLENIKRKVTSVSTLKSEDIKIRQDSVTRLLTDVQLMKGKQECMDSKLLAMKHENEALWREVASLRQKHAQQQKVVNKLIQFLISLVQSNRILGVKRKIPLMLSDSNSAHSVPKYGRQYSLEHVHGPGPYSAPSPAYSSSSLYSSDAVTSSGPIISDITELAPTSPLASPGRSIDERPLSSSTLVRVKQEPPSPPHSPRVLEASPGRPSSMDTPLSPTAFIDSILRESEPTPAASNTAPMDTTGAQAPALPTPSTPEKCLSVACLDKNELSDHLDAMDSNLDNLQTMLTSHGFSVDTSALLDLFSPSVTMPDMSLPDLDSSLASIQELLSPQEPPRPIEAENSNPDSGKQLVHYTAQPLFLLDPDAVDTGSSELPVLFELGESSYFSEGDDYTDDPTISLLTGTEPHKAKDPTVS
In words: HSF1 potentiators in luciferase reporter cells, confirmation, cell-based, NIH3T3, luminescence, dose retest (AID 435004).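 Note: stress induced by proteasome inhibitor MG132 added 30 min after compound; luciferase reporter driven by HSF1 response element in NIH3T3 cells; actives raise luminescence as potentiators of the MG132 stress response.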 In kind it is functional. In general terms: In a reporter assay the amount or activity of a reporter protein is the signal.

Test [3] can be described thus: Shn3 3'UTR reporter inhibitors, dose response, cell-based, Clone20 osteoblasts, firefly luciferase, cherry-picked (AID 624132).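 Note: firefly luciferase luminescence from reporter carrying the Shn3 3'UTR in osteoblasts.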 Type of test: functional.
Test [4] can be described thus: control 3'UTR Renilla luciferase suppression, dose response, counter-screen for Shn3 inhibitor project, cell-based, Clone20-Shn3RL, cherry-picked (AID 624133). In kind it is functional. A general note: Counterscreens check selectivity or assay interference.
A short description of test [5]: HepG2 cell cytotoxicity, dose response, cytotoxicity control for Shn3 inhibitor project, CellTiter-Glo, cherry-picked (AID 624134). In kind it is functional, cell-based. A general note: Cellular ATP, detected with luciferase, serves as a proxy for viable cell number.
Test [6] has as its target E3 ubiquitin-protein ligase Mdm2/Protein Mdm4 (Homo sapiens, UniProt O15151+Q00987). As to the kind of experiment: Mdm2-MdmX interaction inhibitors, dose response, luminescence detection (AID 504593). In kind it is functional.
The target in test [7] is DNA damage-inducible transcript 3 protein (Mus musculus, UniProt P35639). In kind it is functional, Cricetulus griseus.
Chain of DNA damage-inducible transcript 3 protein (P35639 whole entry): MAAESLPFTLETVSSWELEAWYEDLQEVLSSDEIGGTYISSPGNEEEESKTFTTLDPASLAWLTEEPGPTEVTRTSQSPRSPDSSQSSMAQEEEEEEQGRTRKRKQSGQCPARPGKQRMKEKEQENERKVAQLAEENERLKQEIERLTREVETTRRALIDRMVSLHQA
Test [8] addresses Muscarinic acetylcholine receptor M1 (Homo sapiens, UniProt P11229). In words: Late-stage radioligand binding dose response assay to identify inhibitors of NADPH oxidase 1 (NOX1): PDSP screen Ki Set 2. [Related pubchem assays (depositor defined):AID1792, AID1796, AID1823, AID2532, AID2538, AID2539, AID2541, AID2545, AID2556, AID2664, AID2752, AID2773, AID2808, AID2819, AID434953, AID434974, AID434992, AID434993, AID434997 ….

Another test has as its target D(3) dopamine receptor (Homo sapiens, UniProt P35462). The test is described as above.
For test [9], the target named is Kappa-type opioid receptor (Homo sapiens, UniProt P41145). The test is described as above.
Chain of Kappa-type opioid receptor (P41145 whole entry): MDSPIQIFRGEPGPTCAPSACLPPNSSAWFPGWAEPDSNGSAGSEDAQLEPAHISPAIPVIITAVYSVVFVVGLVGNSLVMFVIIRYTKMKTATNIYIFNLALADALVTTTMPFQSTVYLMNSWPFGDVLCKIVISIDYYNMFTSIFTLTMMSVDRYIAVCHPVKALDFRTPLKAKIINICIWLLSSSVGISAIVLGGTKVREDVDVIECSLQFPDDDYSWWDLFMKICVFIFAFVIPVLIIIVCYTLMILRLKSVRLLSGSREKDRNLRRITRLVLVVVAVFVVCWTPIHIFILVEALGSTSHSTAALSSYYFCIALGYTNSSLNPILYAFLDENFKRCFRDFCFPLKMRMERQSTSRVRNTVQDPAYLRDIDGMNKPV
In test [10] the target is Muscarinic acetylcholine receptor M2 (Homo sapiens, UniProt P08172). The description is as above.
Chain of Muscarinic acetylcholine receptor M2 (P08172 whole entry): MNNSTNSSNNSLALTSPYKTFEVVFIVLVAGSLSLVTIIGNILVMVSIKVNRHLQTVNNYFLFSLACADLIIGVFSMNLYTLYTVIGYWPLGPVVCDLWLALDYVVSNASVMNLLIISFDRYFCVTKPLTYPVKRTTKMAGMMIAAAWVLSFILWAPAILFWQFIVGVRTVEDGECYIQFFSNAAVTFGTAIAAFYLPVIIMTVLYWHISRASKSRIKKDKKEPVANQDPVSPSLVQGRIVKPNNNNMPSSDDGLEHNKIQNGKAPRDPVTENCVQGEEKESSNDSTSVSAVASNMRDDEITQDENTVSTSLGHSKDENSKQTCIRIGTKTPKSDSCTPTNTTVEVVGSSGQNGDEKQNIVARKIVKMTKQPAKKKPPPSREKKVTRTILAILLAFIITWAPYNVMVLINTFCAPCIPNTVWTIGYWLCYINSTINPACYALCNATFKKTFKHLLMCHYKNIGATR
The target of test [11] is Alpha-2B adrenergic receptor (Homo sapiens, UniProt P18089). The description is as above.
Chain of Alpha-2B adrenergic receptor (P18089 whole entry): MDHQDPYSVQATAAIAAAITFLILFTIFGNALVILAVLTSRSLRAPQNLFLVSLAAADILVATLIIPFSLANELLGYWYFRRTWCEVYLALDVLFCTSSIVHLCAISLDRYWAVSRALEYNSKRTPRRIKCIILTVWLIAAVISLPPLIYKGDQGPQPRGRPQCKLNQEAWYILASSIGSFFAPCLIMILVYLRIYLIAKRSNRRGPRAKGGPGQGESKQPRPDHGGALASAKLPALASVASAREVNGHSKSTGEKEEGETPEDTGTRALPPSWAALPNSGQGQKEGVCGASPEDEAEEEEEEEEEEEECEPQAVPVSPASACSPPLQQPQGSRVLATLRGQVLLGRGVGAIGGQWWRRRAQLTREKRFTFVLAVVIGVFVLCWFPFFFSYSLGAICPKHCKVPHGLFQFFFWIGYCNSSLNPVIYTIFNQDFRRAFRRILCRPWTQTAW
A further test relates to HT-29. In words: Late-stage luminescence-based cell-based dose response assay to identify inhibitors of NADPH oxidase 1 (NOX1): Cytotoxicity assay 2. In kind it is functional. As to conditions: Homo sapiens.
Test [12] addresses 5-hydroxytryptamine receptor 2B (Homo sapiens, UniProt P41595). In words: Late-stage radioligand binding dose response assay to identify inhibitors of NADPH oxidase 1 (NOX1): PDSP screen Ki Set 2. [Related pubchem assays (depositor defined):AID1792, AID1796, AID1823, AID2532, AID2538, AID2539, AID2541, AID2545, AID2556, AID2664, AID2752, AID2773, AID2808, AID2819, AID434953, AID434974, AID434992, AID434993, AID434997 ….

Test [13] concerns the target T3, Rac GTPase-activating protein 1 (Homo sapiens, UniProt Q9H0H5).
T3 sequence (Q9H0H5 whole entry): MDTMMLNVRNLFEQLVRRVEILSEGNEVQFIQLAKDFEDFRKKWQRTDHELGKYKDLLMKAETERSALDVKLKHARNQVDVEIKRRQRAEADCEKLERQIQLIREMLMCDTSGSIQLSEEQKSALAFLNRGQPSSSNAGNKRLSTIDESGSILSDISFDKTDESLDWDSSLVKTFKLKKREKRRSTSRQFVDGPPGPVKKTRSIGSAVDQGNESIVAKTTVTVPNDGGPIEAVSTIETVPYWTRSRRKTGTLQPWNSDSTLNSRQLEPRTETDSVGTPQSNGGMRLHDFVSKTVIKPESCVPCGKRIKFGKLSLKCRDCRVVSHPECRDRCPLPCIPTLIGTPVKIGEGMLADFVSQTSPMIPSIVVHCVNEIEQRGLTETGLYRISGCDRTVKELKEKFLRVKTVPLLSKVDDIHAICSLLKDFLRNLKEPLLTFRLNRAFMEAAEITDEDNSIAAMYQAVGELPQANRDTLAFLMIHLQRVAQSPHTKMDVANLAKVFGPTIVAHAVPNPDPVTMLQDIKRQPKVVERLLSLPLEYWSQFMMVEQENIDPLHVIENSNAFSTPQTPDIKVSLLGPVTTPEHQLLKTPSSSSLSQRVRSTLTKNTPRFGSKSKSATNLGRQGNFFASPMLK
As to the kind of experiment: MgcRacGAP GTPase-activating activity inhibitors, confirmation, biochemical, ADP Hunter fluorescence, primary and confirmatory (AID 624330). In kind it is functional.

Test [14] deals with Alpha-2C adrenergic receptor (Homo sapiens, UniProt P18825). In words: Late-stage radioligand binding dose response assay to identify inhibitors of NADPH oxidase 1 (NOX1): PDSP screen Ki Set 2. [Related pubchem assays (depositor defined):AID1792, AID1796, AID1823, AID2532, AID2538, AID2539, AID2541, AID2545, AID2556, AID2664, AID2752, AID2773, AID2808, AID2819, AID434953, AID434974, AID434992, AID434993, AID434997 ….
Chain of Alpha-2C adrenergic receptor (P18825 whole entry): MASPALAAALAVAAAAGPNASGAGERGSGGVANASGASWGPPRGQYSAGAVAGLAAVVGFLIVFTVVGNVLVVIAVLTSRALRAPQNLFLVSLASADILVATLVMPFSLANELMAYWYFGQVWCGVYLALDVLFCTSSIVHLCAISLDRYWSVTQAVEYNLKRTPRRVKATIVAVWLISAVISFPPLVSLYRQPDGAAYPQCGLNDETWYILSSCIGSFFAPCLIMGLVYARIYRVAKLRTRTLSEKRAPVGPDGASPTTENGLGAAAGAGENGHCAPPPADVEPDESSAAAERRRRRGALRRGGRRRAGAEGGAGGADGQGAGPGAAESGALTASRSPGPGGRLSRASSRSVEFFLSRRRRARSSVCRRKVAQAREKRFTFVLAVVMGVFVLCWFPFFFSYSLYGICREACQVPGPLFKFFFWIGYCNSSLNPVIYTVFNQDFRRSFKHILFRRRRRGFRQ

Test [15] is described as follows: HEp-2 cell cytotoxicity, dose response, cytotoxicity control for RSV inhibitor project, HTS (AID 2410). The note with it: human respiratory syncytial virus. Type of test: functional.
Test [16] addresses Alpha-2A adrenergic receptor (Homo sapiens, UniProt P08913). In words: Late-stage radioligand binding dose response assay to identify inhibitors of NADPH oxidase 1 (NOX1): PDSP screen Ki Set 2. [Related pubchem assays (depositor defined):AID1792, AID1796, AID1823, AID2532, AID2538, AID2539, AID2541, AID2545, AID2556, AID2664, AID2752, AID2773, AID2808, AID2819, AID434953, AID434974, AID434992, AID434993, AID434997 ….

The target of test [17] is Lysosomal acid glucosylceramidase (Homo sapiens, UniProt P04062). As to the kind of experiment: Dose response cell-based high throughput screening assay to identify enhancers of beta-glucosidase activity. [Related pubchem assays: 784 ]. In kind it is functional.
Chain of Lysosomal acid glucosylceramidase (P04062 whole entry): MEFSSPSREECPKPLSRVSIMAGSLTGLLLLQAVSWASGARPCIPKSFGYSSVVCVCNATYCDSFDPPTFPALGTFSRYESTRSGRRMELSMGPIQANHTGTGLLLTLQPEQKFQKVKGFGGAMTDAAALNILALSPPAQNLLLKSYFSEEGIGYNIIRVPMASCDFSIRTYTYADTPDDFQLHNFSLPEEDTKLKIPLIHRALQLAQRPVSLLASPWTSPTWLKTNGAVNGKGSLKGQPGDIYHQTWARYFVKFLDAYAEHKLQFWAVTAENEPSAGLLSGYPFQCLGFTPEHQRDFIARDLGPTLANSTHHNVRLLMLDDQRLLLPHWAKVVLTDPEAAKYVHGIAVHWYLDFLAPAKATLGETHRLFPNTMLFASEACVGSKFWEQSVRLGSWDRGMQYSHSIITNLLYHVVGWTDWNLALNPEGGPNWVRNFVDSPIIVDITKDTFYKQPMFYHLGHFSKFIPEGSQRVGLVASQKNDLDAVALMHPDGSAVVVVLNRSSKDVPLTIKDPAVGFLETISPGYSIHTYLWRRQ
The target in test [18] is Alkaline phosphatase, placental type (Homo sapiens, UniProt P05187). In words: PLAP enzyme inhibitors, confirmation, biochemical, luminescence (AID 1512). In kind it is functional.
Chain of Alkaline phosphatase, placental type (P05187 whole entry): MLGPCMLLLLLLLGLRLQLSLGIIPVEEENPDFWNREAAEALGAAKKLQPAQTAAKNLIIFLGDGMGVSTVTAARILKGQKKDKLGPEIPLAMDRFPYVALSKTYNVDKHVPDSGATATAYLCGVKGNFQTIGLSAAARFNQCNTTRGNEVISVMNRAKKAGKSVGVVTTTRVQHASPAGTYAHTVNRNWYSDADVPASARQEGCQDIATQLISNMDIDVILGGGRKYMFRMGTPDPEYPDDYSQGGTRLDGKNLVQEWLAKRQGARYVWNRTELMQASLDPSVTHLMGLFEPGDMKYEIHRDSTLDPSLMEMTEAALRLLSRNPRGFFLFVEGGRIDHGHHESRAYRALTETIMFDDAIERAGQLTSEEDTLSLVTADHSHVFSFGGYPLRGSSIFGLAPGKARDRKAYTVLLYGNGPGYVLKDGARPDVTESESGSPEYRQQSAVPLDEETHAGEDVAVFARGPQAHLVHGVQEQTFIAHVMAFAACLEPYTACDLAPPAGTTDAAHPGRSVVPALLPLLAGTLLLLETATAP
For test [19], the target named is Glyceraldehyde-3-phosphate dehydrogenase (Homo sapiens, UniProt P04406).
Chain of Glyceraldehyde-3-phosphate dehydrogenase (P04406 whole entry): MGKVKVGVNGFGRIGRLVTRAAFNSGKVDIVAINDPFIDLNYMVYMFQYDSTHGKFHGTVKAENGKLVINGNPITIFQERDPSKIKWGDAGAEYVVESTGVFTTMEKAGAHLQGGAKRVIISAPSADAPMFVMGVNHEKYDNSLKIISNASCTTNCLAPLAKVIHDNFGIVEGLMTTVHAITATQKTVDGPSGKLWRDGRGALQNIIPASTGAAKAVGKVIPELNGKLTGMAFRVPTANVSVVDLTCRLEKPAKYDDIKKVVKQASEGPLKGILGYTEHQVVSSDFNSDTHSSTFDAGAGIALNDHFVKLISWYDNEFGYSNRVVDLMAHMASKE

Molecules are shown by their SMILES. Activity calls are given as the source filed them. Unless noted, no cut-off for these calls is given here.

Chain of E3 ubiquitin-protein ligase Mdm2/Protein Mdm4 (Q00987 whole entry): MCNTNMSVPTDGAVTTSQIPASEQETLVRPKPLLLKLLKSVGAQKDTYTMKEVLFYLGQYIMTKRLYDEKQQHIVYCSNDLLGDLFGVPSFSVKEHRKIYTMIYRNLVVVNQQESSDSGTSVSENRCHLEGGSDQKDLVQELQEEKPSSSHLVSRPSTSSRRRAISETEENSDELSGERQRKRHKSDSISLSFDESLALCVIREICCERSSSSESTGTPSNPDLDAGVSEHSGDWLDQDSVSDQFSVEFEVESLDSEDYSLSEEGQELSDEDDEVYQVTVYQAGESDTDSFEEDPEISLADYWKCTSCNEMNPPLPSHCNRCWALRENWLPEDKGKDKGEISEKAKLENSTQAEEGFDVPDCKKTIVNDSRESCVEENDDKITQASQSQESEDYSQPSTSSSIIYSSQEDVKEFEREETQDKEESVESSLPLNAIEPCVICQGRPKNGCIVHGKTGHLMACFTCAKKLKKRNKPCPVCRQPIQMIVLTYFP
Chain of E3 ubiquitin-protein ligase Mdm2/Protein Mdm4 (O15151 whole entry): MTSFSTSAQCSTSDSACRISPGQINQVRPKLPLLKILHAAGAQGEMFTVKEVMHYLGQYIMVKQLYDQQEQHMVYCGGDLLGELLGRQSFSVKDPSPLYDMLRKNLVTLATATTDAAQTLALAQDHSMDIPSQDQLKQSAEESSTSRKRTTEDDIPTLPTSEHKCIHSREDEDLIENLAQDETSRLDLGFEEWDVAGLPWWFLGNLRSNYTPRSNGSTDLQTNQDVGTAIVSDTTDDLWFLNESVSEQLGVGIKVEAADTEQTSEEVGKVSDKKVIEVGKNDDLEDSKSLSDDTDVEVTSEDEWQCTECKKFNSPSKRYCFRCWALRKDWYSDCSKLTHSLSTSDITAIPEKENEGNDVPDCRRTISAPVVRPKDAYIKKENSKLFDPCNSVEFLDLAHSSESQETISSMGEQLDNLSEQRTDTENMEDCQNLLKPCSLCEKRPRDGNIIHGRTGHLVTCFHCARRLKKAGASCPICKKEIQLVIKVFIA
Chain of 5-hydroxytryptamine receptor 2B (P41595 whole entry): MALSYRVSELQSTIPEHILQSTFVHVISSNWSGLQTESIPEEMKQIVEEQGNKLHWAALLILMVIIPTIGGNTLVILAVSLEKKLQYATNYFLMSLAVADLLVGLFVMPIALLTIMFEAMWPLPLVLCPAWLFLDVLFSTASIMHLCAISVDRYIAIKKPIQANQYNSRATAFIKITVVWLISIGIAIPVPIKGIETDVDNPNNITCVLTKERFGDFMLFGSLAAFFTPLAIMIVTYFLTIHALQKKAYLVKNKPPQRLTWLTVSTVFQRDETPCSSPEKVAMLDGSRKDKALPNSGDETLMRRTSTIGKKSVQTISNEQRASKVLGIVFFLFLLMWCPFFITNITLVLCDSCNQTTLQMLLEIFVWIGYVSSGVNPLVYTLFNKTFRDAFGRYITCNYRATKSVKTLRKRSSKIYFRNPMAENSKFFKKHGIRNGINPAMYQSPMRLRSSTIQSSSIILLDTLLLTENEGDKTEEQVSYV

For `CCCSc1nc(O)c(CC)c(=O)n1C(C)CC` (stereo unspecified), in test [1], the EC50 was > 100 µM (inactive).

Regarding `CCOC(=O)/C=C/C(=O)OCC(=O)NC(c1ccccc1)c1ccccc1`, in test [2], the EC50 was 13.4 µM (active). Besides, the AC50 in test [3] was 5.14 µM (active); in test [4] it was 22 µM (active); in test [5] it was > 70 µM (inactive). In addition, in [6], the IC50 is 3.28 µM (active).

Regarding `C/C(=N\NC(=O)c1nn(C)c(C)c1Br)c1ccc(NC(=O)c2ccoc2C)cc1`, the “Absolute IC50 (CHOP)” value in test [7] stood at 10 µM.

As to `CC(=O)c1ccc2c(c1)Nc1ccccc1S2`, the Ki in test [8] is > 10 µM (inactive); at D(3) dopamine receptor, > 10 µM (inactive); in test [9] it was > 10 µM (inactive); in test [10] it was > 10 µM (inactive); in test [11], > 10 µM (inactive); in test [12], 0.3 µM (active). The Ki in test [14] and in [16] was > 10 µM (inactive) in each case. The CC50 with HT-29 was > 20 µM (not active); in test [15] it was 18.5 µM (active). Further, the IC50 in test [13] was 31.6 µM (active). The 50% effective concentration (EC50) in test [17] was > 50 µM (not active).

`O=C(NCCO)c1cc(-c2ccc(Cl)cc2Cl)n[nH]1`: the IC50 in test [18] was 21.1 µM (active); in [19], > 100 µM (not active).
